We go through two molecules from patent US20250288588A1, “SUBSTITUTED IMIDAZOPYRIDINES AND IMIDAZOPYRIMIDINES, AND USE OF SAME FOR TREATING, AMELIORATING, AND/OR PREVENTING RETINAL DEGENERATION” (Yale University, priority 2022, published 2025).

Assay type in all cases: cell-based
The subject of data set [1] is Human ARPE-19 cells. As to the kind of experiment: TBHP oxidative stress-induced cell death, cell viability (RealTime-Glo MT). The following applies: for cell viability after exposure to TBHP / protection from oxidative stress-induced cell death: p<0.0001; for protection from oxidative stress-induced cell death: FIG. 3, 0.6 μM compound preincubated 24 hours. Here is the method:
Immortalized human RPE cells (ARPE-19) obtained from the American Type Culture Collection (ATCC, Manassas, VA, USA) were cultured in Dulbecco's modified Eagle's medium (DMEM; Thermo Fisher Scientific, Waltham, MA) containing 10% fetal bovine serum (FBS), 100 IU/mL penicillin, 100 μg/mL streptomycin, 100 μg/mL gentamicin, and 2.5 μg/mL amphotericin B (Thermo Fisher Scientific).
Human ARPE-19 cells were plated in 96-well plates for 24 hours in DMEM supplemented with FBS and antibiotics. ARPE-19 cells were preincubated with either ciclopirox olamine (Sigma), compound 414 (Chemical Diversity, San Diego, CA), compound 434 (Chemical Diversity) or no compound for 24 hours and then exposed to varying concentrations of tert-butyl hydroperoxide (TBHP; Sigma-Aldrich, St. Louis, MO) the next day for 24 hours. Cell viability was measured the following day by RealTime-Glo™ MT cell viability assay (Promega, Madison, WI) using a BioTek FLx800™ fluorescence reader (BioTek, Winooski, VT).
Human ARPE-19 cells (CRL-2302; American Type Culture Collection) were preincubated with 0.9 μM of DH381-2 and DH421 for 24 hours and then exposed to 300 μM tert-butyl hydroperoxide (TBHP) to induce cell death for 24 hours.
Human ARPE-19 cells (CRL-2302; American Type Culture Collection) were preincubated with 0.9 μM of DH421 for 24 hours and then exposed to 250 μM tert-butyl hydroperoxide (TBHP) to induce cell death for 24 hours.
Human ARPE-19 cells (CRL-2302; American Type Culture Collection) with preincubated with 0.6 μM of compound DH421 or DH381-2 for 24 hours and then exposed to 300 μM tert-butyl hydroperoxide (TBHP) to induce cell death for 24 hours. Protective effects on human ARPE-19 cells treated with DH421 and DH381-2. **** p<0.0001.

The test system of data set [2] is Human ARPE-19 cells. As to the kind of experiment: Blue light damage, cell viability (RealTime-Glo MT). The following applies: FIG. 4, 0.6 μM compound preincubated 24 hours, then blue light 156.7 LUX for 36 hours. The protocol: Human ARPE-19 cells were plated in 96-well plates for 24 hours in DMEM supplemented with FBS and antibiotics. The cells were preincubated with drug for 24 hours and then exposed to blue light (156.7 LUX for 36 hours). Cell viability was measured after 36 hours of blue light exposure using RealTime-Glo MT assays (Promega) with a BioTek FLx800 fluorescence reader (Bio Tek, Winooski, VT).
Human ARPE-19 cells (CRL-2302; American Type Culture Collection) were preincubated with 0.6 μM of compound DH421 or DH381-2 for 24 hours and then exposed to blue light (156.7 LUX for 36 hours). Protective effect of compound DH421 or DH381-2 on human ARPE-19 cells exposed to blue light (156.7 LUX for 36 hours). * p<0.05, *** p<0.01.

For data set [3], the system named is Human ARPE-19 cells. As to the kind of experiment: Cell viability on nitrite-modified extracellular matrix (ECM). The following applies: FIG. 5, 1 μM, 3 μM, and 10 μM compound, seeded onto nitrite-modified ECM for 24 hours. The protocol: Immortalized human RPE (ARPE-19) cells were obtained from the ATCC, cultured, and maintained in DMEM (Invitrogen-Gibco, Life Technologies) containing 10% FBS, 100 IU/mL penicillin, 100 μg/mL streptomycin, and 100 μg/mL gentamicin (Invitrogen-Gibco, Life Technologies). These cells were incubated in a humidified atmosphere of 5% CO2 and 95% air at 37° C. ARPE-19 cells were grown on 24-well Transwell® permeable supports (Corning, Inc.) in 12-well plates or flat bottom 24-well plates for 6-8 weeks to allow the ECM to form. ARPE-19 cells were then removed by the addition of 20 mM ammonium hydroxide buffer for 20 min, and the ECM was washed with phosphate buffered saline (PBS). PBS was removed from the RPE-ECM plates and dried. Subsequently, 100 mM sodium nitrite was added to the ECM and incubated at 37° C. for 7 days. Plates were then washed with PBS and incubated with PBS for 4 hours. Finally, plates were washed with PBS to completely remove the nitrite. Cells are preincubated with drug for 24 hours and then seeded on nitrite-modified ECM for 24 hours. Cell viability was measured using RealTime-Glo MT assays (Promega) with a BioTek FLx800 fluorescence reader (Bio Tek, Winooski, VT). […]

In data set [4] the test system is Human RPE cells. As to the kind of experiment: TBHP oxidative stress-induced cell death, cell viability. The following applies: FIG. 6, 0.6 μM compound preincubated 24 hours, then 300 μM TBHP 24 hours, p<0.0001. The protocol:
Human RPE cells were preincubated with 0.6 μM of compound DH421 or DH381-2 for 24 hours and then exposed to 300 μM tert-butyl hydroperoxide (TBHP) to induce cell death for 24 hours. Protective effects on human RPE cells treated with DH421 and DH381-2. **** p<0.0001.

For data set [5], the system named is Human RPE cells. As to the kind of experiment: Blue light damage, cell viability. Particulars: FIG. 7, 0.6 μM compound preincubated 24 hours, then blue light 156.7 LUX for 36 hours. The protocol: Human RPE cells were preincubated with 0.6 μM of compound DH421 or DH381-2 for 24 hours and then exposed to blue light (156.7 LUX for 36 hours). Protective effect of compound DH421 or DH381-2 on human RPE cells exposed to blue light (156.7 LUX for 36 hours). * p<0.05, *** p<0.01.

Data set [6] concerns Human RPE cells. As to the kind of experiment: Cell viability on nitrite-modified extracellular matrix (ECM). The following applies: FIG. 8, 1 μM compound, seeded onto nitrite-modified ECM for 24 hours, p<0.05. Here is the method:
Human RPE cells were treated with 1 μM of compound DH421 or DH381-2 and then seeded onto nitrite-modified ECM and untreated (normal) ECM for 24 hours. Protective effects of compound DH421 or DH381-2 on RPE cells seeded onto nitrite-modified ECM. *p<0.05.

Data set [7] has as its system Human RPE cells. The experiment in a line: Mitochondrial function after TBHP (oxygen consumption rate, Seahorse XF analyzer). Particulars: FIGS. 9A-9B, 1 μM compound preincubated 18 hours, then 300 μM TBHP 24 hours; for ATP production compared to TBHP-treated group: p<0.001. Here is the method: Human RPE cells were preincubated with 1 μM of compound DH381-2 and DH421 for 18 hours and then treated with 300 μM tert-butyl hydroperoxide (TBHP) for 24 hours. Oxygen consumption rate (OCR) was determined by Seahorse XF analyzer to measure mitochondrial function.

Data set [8] relates to Human RPE cells. The experiment in a line: CellTox Green Cytotoxicity Assay. The following applies: FIG. 10, 1 μM compound preincubated 24 hours. Here is the method:
Human RPE cells were preincubated with 1 μM of compound DH381-2 and DH421 for 24 hours. Cell toxicity was measured by CellTox Green Cytotoxicity Assay in human RPE cells after treatment with TBHP and compounds DH381-2 and DH421.

Setting [9] is: FIG. 1, 0.9 μM compound preincubated 24 hours, then 300 μM TBHP 24 hours.

As for `Oc1ccc(Br)cc1-c1nc2ncccn2c1Nc1ccccn1` [DH381-2, 4-bromo-2-(3-(pyridin-2-ylamino)imidazo[1,2-a]pyrimidin-2-yl)phenol], the “cell viability after exposure to TBHP” value in the data set on Human ARPE-19 cells [1] (setting [9]) was “significantly increased cell viability”. Further, the “protection from oxidative stress-induced cell death” value in the data set with Human ARPE-19 cells [1] (then 300 μM TBHP 24 hours) and with Human RPE cells [4] was “protected” in each case. The “protection from blue light damage” value in the data set on Human ARPE-19 cells [2] and in the data set with Human RPE cells [5] was “protected” throughout. Further, the “cell viability on nitrite-modified ECM” value with Human ARPE-19 cells [3] and in the data set on Human RPE cells [6] was “enhanced” throughout. Moreover, the “mitochondrial function (oxygen consumption rate) after oxidative stress” value in the data set with Human RPE cells [7] is recorded as “improved mitochondrial function”. The “ATP production compared to TBHP-treated group” value in the data set with Human RPE cells [7] was “increased ATP production”. Besides, in the data set with Human RPE cells [8], the cytotoxicity level entry is given as “not affected”.
Turning to `CCc1cccc(C)c1Nc1c(-c2cc(Br)ccc2O)nc2ccccn12` [DH421, 4-bromo-2-(3-((2-ethyl-6-methylphenyl)amino)imidazo[1,2-a]pyridin-2-yl)phenol], the “cell viability after exposure to TBHP” value in the data set on Human ARPE-19 cells [1] (setting [9]) is “significantly increased cell viability”; in the data set on Human ARPE-19 cells [1] (FIG. 2, 0.9 μM compound preincubated 24 hours, then 250 μM TBHP 24 hours), “significantly increased cell viability”. The “effect on cell growth suppression” value with Human ARPE-19 cells [1] (FIG. 2, 0.9 μM compound) is on record as “no effect on cell growth suppression”. Moreover, the “protection from oxidative stress-induced cell death” value in the data set on Human ARPE-19 cells [1] (then 300 μM TBHP 24 hours) and in the data set with Human RPE cells [4] was “protected” throughout. Besides, the “protection from blue light damage” value in the data set with Human ARPE-19 cells [2] and in the data set with Human RPE cells [5] was “protected” in each case. The “cell viability on nitrite-modified ECM” value in the data set with Human ARPE-19 cells [3] and with Human RPE cells [6] was “enhanced” throughout. For the same molecule, in the data set with Human RPE cells [7], the “mitochondrial function (oxygen consumption rate) after oxidative stress” value is listed as “improved mitochondrial function”. Also, the “ATP production compared to TBHP-treated group” value in the data set on Human RPE cells [7] was “increased ATP production”. In the data set on Human RPE cells [8], the cytotoxicity level entry is on record as “not affected”.
